Test results from patent publication US12595253B2, “Benzamides of pyrazolylamino-pyrimidinyl derivatives, and compositions and methods thereof” (LYNK PHARMACEUTICALS CO. LTD., priority 2019, dated 2026).

How the values were obtained:
[1] = target: T1, CYP2D6 (Homo sapiens, UniProt P10635); assay: CYPs inhibition in pooled human liver microsomes, probe substrate Dextromethorphan; format: in vitro ADME
T1 construct: 0.2 mg/mL human liver microsomes was pre-incubated in 180 μL reaction mixture; from tissue; host or cells: pooled human liver microsomes
T1 sequence (P10635 whole entry): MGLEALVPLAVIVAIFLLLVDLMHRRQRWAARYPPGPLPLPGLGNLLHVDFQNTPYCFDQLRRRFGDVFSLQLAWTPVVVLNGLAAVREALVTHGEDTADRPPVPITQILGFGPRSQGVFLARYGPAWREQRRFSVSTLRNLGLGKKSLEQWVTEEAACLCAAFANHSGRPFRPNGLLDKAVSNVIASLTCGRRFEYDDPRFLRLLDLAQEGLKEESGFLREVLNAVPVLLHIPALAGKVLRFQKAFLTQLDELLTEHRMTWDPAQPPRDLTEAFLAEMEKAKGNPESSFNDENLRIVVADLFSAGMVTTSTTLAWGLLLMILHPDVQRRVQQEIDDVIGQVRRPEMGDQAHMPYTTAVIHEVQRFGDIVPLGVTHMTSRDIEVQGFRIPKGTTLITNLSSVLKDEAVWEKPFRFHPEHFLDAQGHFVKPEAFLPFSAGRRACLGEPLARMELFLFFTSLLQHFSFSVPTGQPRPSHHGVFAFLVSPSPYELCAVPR
Protocol: (§1) The inhibitory potential of test articles in pooled human liver microsomes was evaluated by the method using a cocktail of CYP substrates. […] For the negative control well, the test articles was replaced with 20 μL reaction buffer. After 10 min of pre-incubation at 37° C., 20 μL 10 mM NADPH cofactor was added to the pre-reaction mixtures. After another 10 min incubation, the reaction was stopped by adding 400 μL of ice cold acetonitrile solution containing tolbutamide and labetalol served as internal standards. The incubation mixtures were centrifuged at 4000×g for 20 min, and then the supernatants were analyzed by LC-MS/MS after dilution. SigmaPlot was applied to plot % control activity versus the test compound concentrations, and for non-linear regression analysis of the data. IC50 values of test articles were determined using 3-parameter logistic equation.

[2] = target: T2, JAK2 (Homo sapiens, UniProt O60674); assay: JAK2 microfluidic kinase assay (Caliper EZ Reader II, FAM labeled peptide substrate); format: biochemical
T2 construct: purchased Carna Biosciences
T2 sequence (O60674 whole entry): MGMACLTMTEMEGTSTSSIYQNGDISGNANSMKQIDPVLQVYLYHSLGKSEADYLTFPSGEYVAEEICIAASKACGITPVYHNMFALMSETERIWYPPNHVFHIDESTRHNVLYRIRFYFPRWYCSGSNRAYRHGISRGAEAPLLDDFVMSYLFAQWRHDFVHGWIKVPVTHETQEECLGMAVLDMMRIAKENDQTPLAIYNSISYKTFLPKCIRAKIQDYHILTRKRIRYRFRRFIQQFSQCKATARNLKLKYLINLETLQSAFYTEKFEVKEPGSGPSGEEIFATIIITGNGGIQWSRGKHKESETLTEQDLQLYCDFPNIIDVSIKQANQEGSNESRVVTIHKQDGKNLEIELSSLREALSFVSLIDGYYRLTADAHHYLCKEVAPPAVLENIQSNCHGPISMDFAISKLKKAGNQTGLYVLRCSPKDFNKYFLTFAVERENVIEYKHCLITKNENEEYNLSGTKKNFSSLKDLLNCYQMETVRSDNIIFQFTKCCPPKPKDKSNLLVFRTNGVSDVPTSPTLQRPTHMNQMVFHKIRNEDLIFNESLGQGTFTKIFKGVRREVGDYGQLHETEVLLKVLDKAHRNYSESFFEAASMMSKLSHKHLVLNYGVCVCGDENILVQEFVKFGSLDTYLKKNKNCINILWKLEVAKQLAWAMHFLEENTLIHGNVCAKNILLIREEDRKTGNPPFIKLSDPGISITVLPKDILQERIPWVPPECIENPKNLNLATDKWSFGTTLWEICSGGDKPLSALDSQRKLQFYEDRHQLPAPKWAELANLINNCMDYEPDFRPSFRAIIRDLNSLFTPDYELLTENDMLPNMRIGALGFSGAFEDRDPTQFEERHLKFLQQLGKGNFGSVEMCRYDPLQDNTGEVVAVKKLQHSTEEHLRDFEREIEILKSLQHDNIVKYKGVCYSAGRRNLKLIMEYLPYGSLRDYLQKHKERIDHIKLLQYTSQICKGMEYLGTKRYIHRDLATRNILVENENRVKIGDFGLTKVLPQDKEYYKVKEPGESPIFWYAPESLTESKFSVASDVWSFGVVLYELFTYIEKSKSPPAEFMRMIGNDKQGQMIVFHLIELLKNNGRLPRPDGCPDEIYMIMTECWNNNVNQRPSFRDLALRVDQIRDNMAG
In short: (§2)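 Activity measured in 50 mM HEPES, 0.01% Brij35, 10 mM MgCl2, 2 mM DTT by microfluidic separation of phosphorylated FAM peptide. Enzyme conditions set for 10% substrate conversion.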

[3] = target: T3, CYP2C19 (Homo sapiens, UniProt P33261); assay: CYPs inhibition in pooled human liver microsomes, probe substrate S-mephenytoin; format: in vitro ADME
T3 construct: 0.2 mg/mL human liver microsomes was pre-incubated in 180 μL reaction mixture; from tissue; host or cells: pooled human liver microsomes
T3 sequence (P33261 whole entry): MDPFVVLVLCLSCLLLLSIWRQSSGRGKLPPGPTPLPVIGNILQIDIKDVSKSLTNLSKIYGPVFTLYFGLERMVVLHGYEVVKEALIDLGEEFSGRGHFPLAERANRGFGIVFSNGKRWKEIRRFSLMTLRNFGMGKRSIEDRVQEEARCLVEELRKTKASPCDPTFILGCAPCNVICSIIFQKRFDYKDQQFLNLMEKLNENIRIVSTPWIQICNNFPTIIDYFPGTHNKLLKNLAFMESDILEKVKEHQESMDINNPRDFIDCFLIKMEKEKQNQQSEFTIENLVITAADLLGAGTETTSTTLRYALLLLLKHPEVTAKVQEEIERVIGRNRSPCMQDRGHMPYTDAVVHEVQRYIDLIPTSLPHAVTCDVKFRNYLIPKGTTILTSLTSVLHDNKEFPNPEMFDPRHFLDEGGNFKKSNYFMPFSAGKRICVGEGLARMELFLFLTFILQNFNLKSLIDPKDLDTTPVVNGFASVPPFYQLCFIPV
Protocol: as §1

[4] = target: T4, JAK1 (Homo sapiens, UniProt P23458); assay: JAK1 microfluidic kinase assay (Caliper EZ Reader II, FAM labeled peptide substrate); format: biochemical; settings: IC50 JAK1 (5 nM) (1 m MATP), JAK1 5 nM, 1 mM ATP
T4 construct: purchased Carna Biosciences
T4 sequence (P23458 whole entry): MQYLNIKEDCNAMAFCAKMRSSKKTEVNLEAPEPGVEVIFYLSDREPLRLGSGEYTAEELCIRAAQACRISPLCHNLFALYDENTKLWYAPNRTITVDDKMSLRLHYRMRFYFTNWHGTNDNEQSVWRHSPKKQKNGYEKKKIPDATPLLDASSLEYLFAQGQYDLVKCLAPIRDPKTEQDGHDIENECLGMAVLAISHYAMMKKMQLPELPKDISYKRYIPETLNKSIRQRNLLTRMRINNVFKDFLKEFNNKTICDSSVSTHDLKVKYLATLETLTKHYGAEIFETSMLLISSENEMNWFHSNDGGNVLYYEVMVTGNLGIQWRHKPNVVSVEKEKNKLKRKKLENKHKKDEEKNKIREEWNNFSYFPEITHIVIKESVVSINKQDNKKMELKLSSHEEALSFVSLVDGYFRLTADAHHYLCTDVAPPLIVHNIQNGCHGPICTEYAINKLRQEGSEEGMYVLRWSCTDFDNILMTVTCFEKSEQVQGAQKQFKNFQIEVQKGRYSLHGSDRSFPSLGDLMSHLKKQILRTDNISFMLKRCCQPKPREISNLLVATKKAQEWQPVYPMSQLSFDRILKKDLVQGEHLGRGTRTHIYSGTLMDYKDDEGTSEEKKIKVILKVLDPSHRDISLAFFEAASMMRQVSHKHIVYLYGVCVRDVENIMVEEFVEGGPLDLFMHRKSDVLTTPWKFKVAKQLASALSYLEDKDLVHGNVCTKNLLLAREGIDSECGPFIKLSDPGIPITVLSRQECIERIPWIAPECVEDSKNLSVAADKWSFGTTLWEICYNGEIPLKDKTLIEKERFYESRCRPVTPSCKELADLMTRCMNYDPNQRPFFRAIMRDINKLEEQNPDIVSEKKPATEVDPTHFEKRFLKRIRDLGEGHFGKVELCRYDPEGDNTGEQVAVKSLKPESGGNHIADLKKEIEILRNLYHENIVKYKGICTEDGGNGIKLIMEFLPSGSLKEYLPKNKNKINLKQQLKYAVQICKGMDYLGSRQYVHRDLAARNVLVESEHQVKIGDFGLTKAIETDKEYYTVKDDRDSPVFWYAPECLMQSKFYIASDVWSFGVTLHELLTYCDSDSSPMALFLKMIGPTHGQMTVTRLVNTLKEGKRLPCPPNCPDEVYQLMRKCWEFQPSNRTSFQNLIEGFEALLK
In short: as §2

[5] = target: T5, CYP3A4 (Homo sapiens, UniProt P08684); assay: CYPs inhibition in pooled human liver microsomes, probe substrate Midazolam; format: in vitro ADME
T5 construct: 0.2 mg/mL human liver microsomes was pre-incubated in 180 μL reaction mixture; from tissue; host or cells: pooled human liver microsomes
Protocol: as §1

[6] = target: T6, TYK2 (Homo sapiens, UniProt P29597); assay: TYK2 microfluidic kinase assay (Caliper EZ Reader II, FAM labeled peptide substrate); format: biochemical; settings: IC50 TYK2 ([…]) (1 mM ATP), TYK2 […], 1 mM ATP
T6 construct: purchased Carna Biosciences
T6 sequence (P29597 whole entry): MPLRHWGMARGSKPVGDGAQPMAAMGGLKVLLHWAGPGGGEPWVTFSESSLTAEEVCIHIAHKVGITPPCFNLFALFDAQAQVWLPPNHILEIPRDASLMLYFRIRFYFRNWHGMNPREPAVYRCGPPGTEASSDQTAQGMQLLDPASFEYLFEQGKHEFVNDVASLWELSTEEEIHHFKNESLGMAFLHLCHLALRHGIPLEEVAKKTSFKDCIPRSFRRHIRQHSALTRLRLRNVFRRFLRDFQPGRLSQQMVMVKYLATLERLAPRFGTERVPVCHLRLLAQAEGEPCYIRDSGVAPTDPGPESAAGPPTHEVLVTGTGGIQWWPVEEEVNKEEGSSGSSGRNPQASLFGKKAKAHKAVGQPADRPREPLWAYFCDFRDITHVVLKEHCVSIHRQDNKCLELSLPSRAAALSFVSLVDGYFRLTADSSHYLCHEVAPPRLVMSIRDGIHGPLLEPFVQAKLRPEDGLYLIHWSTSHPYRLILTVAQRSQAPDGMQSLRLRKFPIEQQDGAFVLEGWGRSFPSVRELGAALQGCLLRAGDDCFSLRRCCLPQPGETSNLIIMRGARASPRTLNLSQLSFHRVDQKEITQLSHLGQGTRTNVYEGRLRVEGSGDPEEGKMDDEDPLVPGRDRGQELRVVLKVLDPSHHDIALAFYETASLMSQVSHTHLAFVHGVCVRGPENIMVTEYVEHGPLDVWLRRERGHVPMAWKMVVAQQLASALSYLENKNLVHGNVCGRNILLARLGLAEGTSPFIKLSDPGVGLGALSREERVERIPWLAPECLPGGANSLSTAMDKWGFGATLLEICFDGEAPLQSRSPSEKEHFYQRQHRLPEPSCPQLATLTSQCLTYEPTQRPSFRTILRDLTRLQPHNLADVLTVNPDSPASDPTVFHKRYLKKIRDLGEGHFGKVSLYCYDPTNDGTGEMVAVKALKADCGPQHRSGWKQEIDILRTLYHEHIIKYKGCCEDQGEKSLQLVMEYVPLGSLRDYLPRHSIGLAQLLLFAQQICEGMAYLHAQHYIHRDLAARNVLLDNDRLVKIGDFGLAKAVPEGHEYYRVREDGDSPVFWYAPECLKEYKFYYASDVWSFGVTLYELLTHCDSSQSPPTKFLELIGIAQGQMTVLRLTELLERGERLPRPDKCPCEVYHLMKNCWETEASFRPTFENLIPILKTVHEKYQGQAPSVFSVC
In short: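 Human JAK enzymes in 50 mM HEPES, 0.01% Brij35, 10 mM MgCl2, 2 mM DTT, tuned to 10% conversion of FAM-peptide; compounds (3-fold dilutions, top 5 μM, 1% DMSO) pre-incubated 10 min. Reaction times: JAK1 120 min, JAK2 20 min, JAK2V617F 30 min, TYK2 10 min; EDTA stop, microfluidic conversion read, IC50 from % inhibition curves.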

[7] = target: T7, CYP1A2 (Homo sapiens, UniProt P05177); assay: CYPs inhibition in pooled human liver microsomes, probe substrate Phenacetin; format: in vitro ADME
T7 construct: 0.2 mg/mL human liver microsomes was pre-incubated in 180 μL reaction mixture; from tissue; host or cells: pooled human liver microsomes
T7 sequence (P05177 1-516): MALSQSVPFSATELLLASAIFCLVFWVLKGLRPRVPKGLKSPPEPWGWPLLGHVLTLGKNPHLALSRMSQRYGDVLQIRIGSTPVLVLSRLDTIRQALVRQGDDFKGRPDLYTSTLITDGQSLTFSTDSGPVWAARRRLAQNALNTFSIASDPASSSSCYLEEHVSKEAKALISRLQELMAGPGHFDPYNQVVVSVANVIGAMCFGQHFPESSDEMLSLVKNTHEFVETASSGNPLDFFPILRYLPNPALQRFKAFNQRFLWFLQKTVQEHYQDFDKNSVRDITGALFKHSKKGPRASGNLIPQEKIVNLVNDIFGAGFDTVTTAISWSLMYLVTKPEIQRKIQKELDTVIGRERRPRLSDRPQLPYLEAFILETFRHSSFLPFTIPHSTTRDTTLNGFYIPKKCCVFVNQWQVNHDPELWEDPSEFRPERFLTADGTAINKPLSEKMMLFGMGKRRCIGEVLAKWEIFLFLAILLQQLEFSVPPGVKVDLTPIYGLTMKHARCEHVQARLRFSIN
Protocol: as §1

[8] = target: T8, CYP2C9 (Homo sapiens, UniProt P11712); assay: CYPs inhibition in pooled human liver microsomes, probe substrate Diclofenac; format: in vitro ADME
T8 construct: 0.2 mg/mL human liver microsomes was pre-incubated in 180 μL reaction mixture; from tissue; host or cells: pooled human liver microsomes
T8 sequence (P11712 whole entry): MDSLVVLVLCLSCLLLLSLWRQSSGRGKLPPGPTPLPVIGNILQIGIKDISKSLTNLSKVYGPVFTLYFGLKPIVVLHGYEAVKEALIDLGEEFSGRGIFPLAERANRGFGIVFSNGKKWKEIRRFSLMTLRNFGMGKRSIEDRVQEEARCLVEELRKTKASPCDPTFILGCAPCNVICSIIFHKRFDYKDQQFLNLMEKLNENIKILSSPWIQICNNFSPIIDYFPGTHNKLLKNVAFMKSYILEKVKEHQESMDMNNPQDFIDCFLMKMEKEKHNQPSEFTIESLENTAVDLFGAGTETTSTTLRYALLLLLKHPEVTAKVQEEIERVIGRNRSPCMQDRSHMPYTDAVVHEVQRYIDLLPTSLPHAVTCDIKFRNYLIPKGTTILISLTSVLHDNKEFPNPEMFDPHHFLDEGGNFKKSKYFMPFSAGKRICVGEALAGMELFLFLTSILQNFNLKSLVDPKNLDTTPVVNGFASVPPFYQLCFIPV
Protocol: as §1

[9] = target: T9, JAK2V617F (Homo sapiens, UniProt O60674, V617F); assay: JAK2V617F microfluidic kinase assay (Caliper EZ Reader II, FAM labeled peptide substrate); format: biochemical; settings: JAK2V617F 2.5 nM, 1 mM ATP
T9 construct: purchased Carna Biosciences
T9 sequence (O60674 whole entry V617F): as the sequence (O60674 whole entry) above, with V617F counted along it
In short: as §2

[10] = Liver microsomes study, Phase I stability (HLM); format: in vitro ADME, human; settings: pH 7.4; human liver microsomes 0.5 mg/mL, 1 μM test article; read-out: HLM Clint
In short: (§3)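 Phase I turnover was followed by LC/MS/MS of parent compound remaining at 0, 10, 30 and 90 min in NADPH-fortified rat or human microsomes, with cold acetonitrile quench. Half-life and intrinsic clearance were derived from the log-linear depletion slope and the inverse protein concentration.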

[11] = Rat pharmacokinetic study (intravenous and oral); format: in vivo; settings: male, plasma, Sprague-Dawley rats, intravenous, 1 mg/kg, solution
Protocol: Pharmacokinetic profile of test articles in rodent were evaluated in fasted male ICR mouse and Sprague-Dawley rats. […] Typically, mice were dosed with 2 mg/kg and 10 mg/kg by intravenous injection and oral gavage, respectively. Rats were dosed with 1 mg/kg and 5 mg/kg by intravenous injection and oral gavage, respectively. Beagle dogs were dosed with 1 mg/kg and 5 mg/kg by intravenous injection and oral gavage, respectively. After dosing, blood samples were collected at each time point. For IV injection group, time points were set at 5, 15, 30 min, and then 1, 2, 4, 8 and 24 hours after dosing. For oral gavage group, timepoints were set at 15, 30 m, and then 1, 2, 4, 8, and 24 hours. Blood was collected into appropriately labeled tubes containing K2EDTA as the anticoagulant. Plasma was obtained within 1 hours of blood collection by centrifugation at 8000×g and 4° C. for 6 minutes, and then stored at −20° C. until analyzed by LCMS/MS for quantification.

[12] = Liver microsomes study, Phase I stability (RLM); format: in vitro ADME, rat; settings: pH 7.4; rat liver microsomes 0.5 mg/mL, 1 μM test article; read-out: RLM Clint
In short: as §3

[13] = IC50 JAK2 ([…]) (1 mM ATP), 1 mM ATP
[14] = IC50 JAK2 ([…]) (Km ATP), Km ATP

Row | SMILES | IC50 [1] | IC50 [2, 13] | IC50 [3] | IC50 [4] | IC50 [5] | IC50 [6] | IC50 [7] | IC50 [8] | IC50 [9] | microsomal CLint at 1 μM [10] | IC50 [2, 14] | AUC [11] | Vd [11] | clearance [11] | half-life [11] | microsomal CLint at 1 μM [12]
1 | CC[C@@H](C#N)NC(=O)c1ccc(-c2nc(Nc3cn[nH]c3)ncc2Cl)cc1 [Example 185, (S)-4-(2-((1H-Pyrazol-4-yl)amino)-5-chloropyrimidin-4-yl)-N-(1-cyanopropyl)benzamide] | 2300 nM | 15.2 nM | 7630 nM | 1.58 nM | 10900 nM | 3.51 nM | 10700 nM | 6040 nM |  |  |  |  |  |  |  | 
2 | Cc1cnc(Nc2cnn(C3CCC(O)CC3)c2)nc1-c1ccc(C(=O)NCC#N)cc1 (stereo not shown) [Example 132, N-(Cyanomethyl)-4-(2-((1-(4-hydroxycyclohexyl)-1H-pyrazol-4-yl)amino)-5-methylpyrimidin-4-yl)benzamide] | 1760 nM | < 0.25 nM | 10400 nM | 6.44 nM | 31500 nM | 20.4 nM | 24500 nM | 5930 nM | 2.89 nM |  |  |  |  |  |  | 
3 | C[C@@H](C#N)NC(=O)c1ccc(-c2nc(Nc3cnn(C4CCN(C)CC4)c3)ncc2F)cc1 [Example 50, (S)—N-(1-cyanoethyl)-4-(5-fluoro-2-((1-(1-methylpiperidin-4-yl)-1H-pyrazol-4-yl)amino)pyrimidin-4-yl)benzamide] | > 50000 nM | 110 nM | > 50000 nM | 91.2 nM | > 50000 nM | 218 nM | > 50000 nM | > 50000 nM | 186 nM | 8.92 µL/min/mg |  |  |  |  |  | 
4 | CC[C@@H](C#N)NC(=O)c1ccc(-c2nc(Nc3cnn(CC#N)c3)ncc2C)cc1 [Example 55, (S)-4-(2-((1-(cyanomethyl)-1H-pyrazol-4-yl)amino)-5-methylpyrimidin-4-yl)-N-(1-cyanopropyl)benzamide] | 19000 nM | 48.7 nM | > 50000 nM | 4.33 nM | 21500 nM | 48.2 nM | 44800 nM | > 50000 nM |  |  |  |  |  |  |  | 
5 | Cc1cnc(Nc2cnn(C)c2)nc1-c1ccc(C(=O)N[C@@H](C)C#N)cc1 [Example 18, (S)—N-(1-Cyanoethyl)-4-(5-methyl-2-((1-methyl-1H-pyrazol-4-yl)amino)pyrimidin-4-yl)benzamide] |  |  |  | 10 nM |  | 49.6 nM |  |  | 53 nM | 11 µL/min/mg | 0.85 nM | 504 ng·h/mL | 1.4 L/kg | 33.1 mL/min/kg | 28.8 min | 23.3 µL/min/mg
6 | CC[C@@H](C#N)NC(=O)c1ccc(-c2nc(Nc3cnn(C(C)C(F)(F)F)c3)ncc2C)cc1 (stereo partly drawn) [Example 195, N—((S)-1-cyanopropyl)-4-(5-methyl-2-((1-(1,1,1-trifluoropropan-2-yl)-1H-pyrazol-4-yl)amino)pyrimidin-4-yl)benzamide] | 30700 nM | 26.4 nM | > 50000 nM | 3.61 nM | > 50000 nM | 5.42 nM | > 50000 nM | > 50000 nM | 61.1 nM |  |  |  |  |  |  | 
7 | COC[C@@H](C#N)NC(=O)c1ccc(-c2nc(Nc3cnn(C4CCN(C)CC4)c3)ncc2C)cc1 [Example 213, (R)—N-(1-Cyano-2-methoxyethyl)-4-(5-methyl-2-((1-(1-methylpiperidin-4-yl)-1H-pyrazol-4-yl)amino)pyrimidin-4-yl)benzamide] | 19400 nM | 1.73 nM | > 50000 nM | 4.61 nM | > 50000 nM | 17.4 nM | > 50000 nM | > 50000 nM |  |  |  |  |  |  |  | 
8 | Cc1cnc(Nc2cnn(CCO)c2)nc1-c1ccc(C(=O)N[C@H](C#N)C2CC2)cc1 [Example 215, (S)—N-(cyano(cyclopropyl)methyl)-4-(2-((1-(2-hydroxyethyl)-1H-pyrazol-4-yl)amino)-5-methylpyrimidin-4-yl)benzamide] | > 50000 nM | 41 nM | > 50000 nM | 5.7 nM | > 50000 nM | 28 nM | > 50000 nM | > 50000 nM |  |  |  |  |  |  |  | 
9 | Cc1cnc(Nc2cnn(C3CCN(C(=O)C4CC4)CC3)c2)nc1-c1ccc(C(=O)NCC#N)cc1 [Example 24, N-(Cyanomethyl)-4-(2-((1-(1-(cyclopropanecarbonyl)piperidin-4-yl)-1H-pyrazol-4-yl)amino)-5-methylpyrimidin-4-yl)benzamide] |  | < 0.25 nM |  | 13.8 nM |  |  |  |  | 2.53 nM | 52.8 µL/min/mg | < 0.25 nM | 1970 ng·h/mL | 0.43 L/kg | 8.4 mL/min/kg | 37.8 min | 53.6 µL/min/mg
10 | Cc1cnc(Nc2cnn(CCO)c2)nc1-c1ccc(C(=O)N[C@@H](C)C#N)cc1 [Example 200, (S)—N-(1-cyanoethyl)-4-(2-((1-(2-hydroxyethyl)-1H-pyrazol-4-yl)amino)-5-methylpyrimidin-4-yl)benzamide] | > 50000 nM | 27.1 nM | > 50000 nM | 2.86 nM | > 50000 nM | 27.3 nM | > 50000 nM | > 50000 nM |  |  |  |  |  |  |  | 
